Assay results from patent US5266698A, “Certain aryl and cycloalkyl fused imidazopyrazinediones; a new class of GABA brain receptor ligands” (Neurogen Corporation, priority 1992, dated 1993).

How the values were obtained:
GABA receptor = settings: stereoisomers of bicuculline; Tallman et al., 1978, Nature, 274: 383-85; cited from earlier work
[1] = target: GABAa receptor (benzodiazepine receptor); assay: GABAa receptor binding assay ([3H]-Flumazenil (RO15-1788) displacement, rat cortical tissue); settings: rat cortical tissue homogenate; 0.5 nM 3H-RO15-1788; 30 min at 4° C., pH 7.4; nonspecific: 1.0 mM diazepam
Method: The pharmaceutical utility of compounds of this invention are indicated by the following assay for GABAa receptor activity.
Assays are carried out as described in Thomas and Tallman (J. Bio. Chem. 156: 9838-9842, J. Neurosci. 3:433-440, 1983). Rat cortical tissue is dissected and homogenized in 25 volumes (w/v) of 0.05M Tris HCl buffer (pH 7.4 at 4° C.). The tissue homogenate is centrifuged in the cold (4°) at 20,000×g for 20'. The supernatant is decanted and the pellet is rehomogenized in the same volume of buffer and again centrifuged at 20,000×g. The supernatant is decanted and the pellet is frozen at -20° C. overnight. The pellet is then thawed and rehomogenized in 25 volume (original wt/vol) of buffer and the procedure i carried out twice. The pellet is finally resuspended in 50 volumes (w/vol of 0.05M Tris HCl buffer (pH 7.4 at […]).
Incubations contain […] of tissue homogenate, […] of radioligand 0.5 nM (^3 H-RO15-1788 [^3 H-Flumazenil] specific activity 80 Ci/mmol), drug or blocker and buffer to a total volume of […]. Incubations are carried for 30 min at 4° C. then are rapidly filtered through GFB filters to separate free and bound ligand. Filters are washed twice and fresh 0.05M Tris HCl buffer (pH 7.4 at 4° C.) and counted in a liquid scintillation counter. 1.0 mM diazepam is added to some tubes to determine nonspecific binding. Data are collected in triplicate determinations, averaged and % inhibition of total specific binding is calculated. Total Specific Binding=Total-Nonspecific. In some cases, the amounts of unlabeled drugs is varied and total displacement curves of binding are carried out. Data are converted to a form for the calculation of IC50 and Hill Coefficient (nH).

SMILES | Block of enhancement of benzodiazepine binding by GABA agonists (GABA receptor) | IC50 [1] [nM]
CN1CCc2cc3c(cc2C1C1OC(=O)c2c1ccc1c2OCO1)OCO3 (single isomer, unassigned; (-)) [(-) bicuculline] | much less active | –
COc1ccc(-n2c(=O)c3c[nH]c4cccnc4n-3c2=O)cc1 [Compound 5, 2-(4-Methoxyphenyl)-imidazo[1,5,a]pyrido[3,2-e]pyrazine-2,3(2H,5H)-dione] | – | 9
CCOc1ccc(-n2c(=O)c3c[nH]c4cccnc4n-3c2=O)cc1 [Compound 8, 2-(4-Ethoxyphenyl)-imidazo[1,5,a]pyrido[3,2-e]pyrazine-2,3(2H,5H)-dione] | – | 20
O=c1c2c[nH]c3cccnc3n-2c(=O)n1-c1ccccc1 [Compound 1, 2-Phenyl-imidazo[1,5,a]pyrido[3,2-e]pyrazine-1,3(2H,5H)-dione] | – | 10
CN1CCc2cc3c(cc2C1C1OC(=O)c2c1ccc1c2OCO1)OCO3 (single isomer, unassigned; (+)) [(+) bicuculline] | blocked | –
